Measured values taken from PMC9127186, “Molecular Basis Underlying Hepatobiliary and Renal Excretion of Phenolic Acids of Salvia miltiorrhiza Roots (Danshen)” (Frontiers in Pharmacology, 2022).

What follows are molecules tested against T1, rat Pept2 (Rattus norvegicus, UniProt Q63424) (assay: Cellular transport assay, HEK-293 cells expressing rat Pept2). Conditions: Danshen phenolic acid at 100 μM final concentration, 10 min, incubation pH 6.0; rat Pept2-transfected vs mock cells.
T1 sequence (Q63424 1-729): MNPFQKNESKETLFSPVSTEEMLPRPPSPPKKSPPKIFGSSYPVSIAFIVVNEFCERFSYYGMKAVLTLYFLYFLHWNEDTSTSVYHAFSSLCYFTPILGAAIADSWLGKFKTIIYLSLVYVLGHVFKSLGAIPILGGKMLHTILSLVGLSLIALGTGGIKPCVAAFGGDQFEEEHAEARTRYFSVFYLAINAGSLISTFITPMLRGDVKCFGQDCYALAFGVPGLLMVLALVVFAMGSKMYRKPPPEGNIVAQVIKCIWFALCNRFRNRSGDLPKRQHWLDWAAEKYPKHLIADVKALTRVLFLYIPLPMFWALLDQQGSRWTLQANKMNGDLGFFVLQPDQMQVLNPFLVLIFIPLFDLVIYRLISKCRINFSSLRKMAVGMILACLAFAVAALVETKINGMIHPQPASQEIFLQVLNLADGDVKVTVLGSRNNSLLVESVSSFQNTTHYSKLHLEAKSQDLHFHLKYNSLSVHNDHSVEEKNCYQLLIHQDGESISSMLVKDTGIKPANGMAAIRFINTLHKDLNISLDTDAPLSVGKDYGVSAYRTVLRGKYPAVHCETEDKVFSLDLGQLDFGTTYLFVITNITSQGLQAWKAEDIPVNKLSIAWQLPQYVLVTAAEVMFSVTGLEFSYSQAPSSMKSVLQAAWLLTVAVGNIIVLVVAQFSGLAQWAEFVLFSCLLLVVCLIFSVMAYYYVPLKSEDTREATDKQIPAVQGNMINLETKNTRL

Row | Molecule | TransportTC/TransportMC ratio (net transport ratio)
1 | salvianolic acid B | 0.94 ± 0.21
2 | O=C(O)Cc1c(/C=C/C(=O)O[C@H](Cc2ccc(O)c(O)c2)C(=O)O)ccc(O)c1O [Salvianolic acid D, salvianolic acid D] | 1.88 ± 0.45
3 | O=C(/C=C/c1ccc(O)c2c1[C@H](C(=O)O)[C@@H](c1ccc(O)c(O)c1)O2)O[C@H](Cc1ccc(O)c(O)c1)C(=O)O [Lithospermic acid, lithospermic acid] | 0.85 ± 0.14
4 | O=C(O)c1ccc(O)c(O)c1 [Protocatechuic acid, protocatechuic acid] | 1.21 ± 0.26

What follows are molecules tested against T2, human OCT3 (Homo sapiens, UniProt O75751) (assay: Cellular transport assay, HEK-293 cells expressing human OCT3). Conditions: Danshen phenolic acid at 100 μM final concentration, 10 min; human OCT3-transfected vs mock cells.
T2 sequence (O75751 1-556): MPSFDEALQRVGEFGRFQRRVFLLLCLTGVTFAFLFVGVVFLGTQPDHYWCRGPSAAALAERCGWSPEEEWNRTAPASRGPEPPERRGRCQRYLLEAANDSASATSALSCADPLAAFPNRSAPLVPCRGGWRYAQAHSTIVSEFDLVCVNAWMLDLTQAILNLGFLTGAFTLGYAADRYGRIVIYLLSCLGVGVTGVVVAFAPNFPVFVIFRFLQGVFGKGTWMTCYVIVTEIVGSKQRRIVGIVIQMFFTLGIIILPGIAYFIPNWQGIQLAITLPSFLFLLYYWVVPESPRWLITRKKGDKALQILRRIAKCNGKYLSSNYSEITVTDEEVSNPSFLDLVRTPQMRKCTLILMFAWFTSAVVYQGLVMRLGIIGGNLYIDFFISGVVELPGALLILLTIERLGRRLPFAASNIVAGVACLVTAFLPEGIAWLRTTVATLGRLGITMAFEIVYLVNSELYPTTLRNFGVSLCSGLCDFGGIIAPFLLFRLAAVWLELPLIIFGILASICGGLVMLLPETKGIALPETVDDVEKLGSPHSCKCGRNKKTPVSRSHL

Row | Molecule | TransportTC/TransportMC ratio (net transport ratio)
5 | salvianolic acid B | 0.75 ± 0.38
6 | O=C(O)Cc1c(/C=C/C(=O)O[C@H](Cc2ccc(O)c(O)c2)C(=O)O)ccc(O)c1O [Salvianolic acid D, salvianolic acid D] | 0.94 ± 0.32
7 | O=C(/C=C/c1ccc(O)c2c1[C@H](C(=O)O)[C@@H](c1ccc(O)c(O)c1)O2)O[C@H](Cc1ccc(O)c(O)c1)C(=O)O [Lithospermic acid, lithospermic acid] | 0.84 ± 0.15
8 | O=C(/C=C/c1ccc(O)c(O)c1)O[C@H](Cc1ccc(O)c(O)c1)C(=O)O [Rosmarinic acid, rosmarinic acid] | 0.75 ± 0.23
9 | O=C(O)c1ccc(O)c(O)c1 [Protocatechuic acid, protocatechuic acid] | 0.94 ± 0.24

The molecules below were run against T3, human NTCP (Homo sapiens, UniProt Q14973) (assay: Cellular transport assay, HEK-293 cells expressing human NTCP). Conditions: Danshen phenolic acid at 100 μM final concentration, 10 min; human NTCP-transfected vs mock cells.
T3 sequence (Q14973 1-349): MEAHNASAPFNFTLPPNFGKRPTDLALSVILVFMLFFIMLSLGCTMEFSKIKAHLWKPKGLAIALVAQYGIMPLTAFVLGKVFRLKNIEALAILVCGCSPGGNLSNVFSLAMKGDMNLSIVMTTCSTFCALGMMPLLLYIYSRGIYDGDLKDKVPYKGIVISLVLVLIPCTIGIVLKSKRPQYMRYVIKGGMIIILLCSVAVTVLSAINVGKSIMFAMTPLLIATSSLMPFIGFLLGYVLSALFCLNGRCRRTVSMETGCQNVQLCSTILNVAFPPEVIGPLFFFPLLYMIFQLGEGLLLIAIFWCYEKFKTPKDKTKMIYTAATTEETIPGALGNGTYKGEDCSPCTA

Row | Molecule | TransportTC/TransportMC ratio (net transport ratio)
10 | salvianolic acid B | 2.88 ± 0.21
11 | O=C(O)Cc1c(/C=C/C(=O)O[C@H](Cc2ccc(O)c(O)c2)C(=O)O)ccc(O)c1O [Salvianolic acid D, salvianolic acid D] | 2.09 ± 0.36
12 | O=C(/C=C/c1ccc(O)c2c1[C@H](C(=O)O)[C@@H](c1ccc(O)c(O)c1)O2)O[C@H](Cc1ccc(O)c(O)c1)C(=O)O [Lithospermic acid, lithospermic acid] | 2.44 ± 0.13
13 | O=C(O)c1ccc(O)c(O)c1 [Protocatechuic acid, protocatechuic acid] | 1.26 ± 0.15

Each molecule was assayed against T4, rat Octn2 (Rattus norvegicus, UniProt O70594) (assay: Cellular transport assay, HEK-293 cells expressing rat Octn2). Conditions: Danshen phenolic acid at 100 μM final concentration, 10 min; rat Octn2-transfected vs mock cells.
T4 sequence (O70594 1-557): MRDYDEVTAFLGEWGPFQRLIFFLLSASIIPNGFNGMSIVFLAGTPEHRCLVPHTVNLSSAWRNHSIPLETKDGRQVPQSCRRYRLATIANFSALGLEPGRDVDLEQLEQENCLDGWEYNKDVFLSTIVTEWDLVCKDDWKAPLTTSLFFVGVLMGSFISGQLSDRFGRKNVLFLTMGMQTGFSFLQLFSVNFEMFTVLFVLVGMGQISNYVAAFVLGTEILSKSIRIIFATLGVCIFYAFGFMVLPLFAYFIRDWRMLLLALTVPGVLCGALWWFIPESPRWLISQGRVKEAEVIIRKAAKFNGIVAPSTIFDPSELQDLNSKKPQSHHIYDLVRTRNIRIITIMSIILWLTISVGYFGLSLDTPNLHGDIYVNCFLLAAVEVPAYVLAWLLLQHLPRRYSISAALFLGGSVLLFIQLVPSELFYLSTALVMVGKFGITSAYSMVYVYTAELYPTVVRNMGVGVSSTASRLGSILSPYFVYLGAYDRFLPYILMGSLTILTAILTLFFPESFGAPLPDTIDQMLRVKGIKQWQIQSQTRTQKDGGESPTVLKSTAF

Row | Molecule | TransportTC/TransportMC ratio (net transport ratio)
14 | salvianolic acid B | 1.25 ± 0.21
15 | O=C(O)Cc1c(/C=C/C(=O)O[C@H](Cc2ccc(O)c(O)c2)C(=O)O)ccc(O)c1O [Salvianolic acid D, salvianolic acid D] | 1.12 ± 0.22
16 | O=C(/C=C/c1ccc(O)c2c1[C@H](C(=O)O)[C@@H](c1ccc(O)c(O)c1)O2)O[C@H](Cc1ccc(O)c(O)c1)C(=O)O [Lithospermic acid, lithospermic acid] | 0.95 ± 0.11
17 | O=C(O)c1ccc(O)c(O)c1 [Protocatechuic acid, protocatechuic acid] | 0.91 ± 0.17
